Source: patent US20140206681A1, “BTK INHIBITORS” (priority 2013, published 2014)

What was measured:
[1] = molecular target: T1, BTK enzyme (recombinant full-length BTK, hBTK) (Homo sapiens, UniProt Q06187); experiment: BTK enzyme activity assay, LANCE TR-FRET; format: biochemical; settings: 50 pM hBTK, 2 μM biotin-A5-peptide, 25 μM ATP; 60 min compound & enzyme incubation; read-out: IC50 BTK activity value
T1 construct: recombinant protein from baculovirus-transfected Sf9 cells: full-length BTK, 6HIS-tag cleaved; 6HIS (cleaved yes); made in house; host or cells: baculovirus-transfected Sf9 cells

HeLa cells = experiment: [3H]Adenosine uptake functional cellular assay; format: cell-based; settings: Homo sapiens, HeLa, accumulation of [3H]adenosine into HeLa cells; compound range 10 μM to […]; read-out: Adenosine uptake inhibition IC50
Description: Compounds are also screened in an adenosine uptake functional cellular assay using the protocol described below. The adenosine uptake inhibition assay may be used to identify compounds with the potential for a negative cardiovascular side effect.
Adenosine uptake activity was determined by monitoring the accumulation of tritiated adenosine into HeLa cells (ATCC catalog # CCL-2) using a PMT-based radiometric detection instrument. […] These cells were incubated overnight at 37° C. in a humidified atmosphere with 5% (v/v) CO2. After this time the growth medium was removed and replaced with 40 μL assay medium comprising: Hanks balanced salts solution (HBSS; Thermo Fisher Catalog # SH30268.01)+5% (v/v) FBS. […] 40 μL of compound in the assay medium was dispensed into individual wells of the Cytostar-T plates and the plates were incubated for 30 minutes under ambient laboratory conditions. Following this incubation, 20 μL of 500 nM [^3H]adenosine (American Radiolabeled Chemicals Inc. Catalog # ART0287) was added in the assay medium and incubated for a further 60 minutes under ambient laboratory conditions. The amount of radiolabel accumulation was then determined using a Perkin Elmer Topcount NXT microplate reader. In brief, HeLa cells adhere to the bottom of the Cytostar-T plate, uptake of [^3H]adenosine into these cells brings the radiolabel into sufficient proximity to excite the scintillant in the base of the plates. These events are captured by single PMT, time-resolved coincidence counting. IC50 values were determined by 4 parameter robust fit of counts per second values vs. (Log10) compound concentrations.

T1 sequence (Q06187 whole entry): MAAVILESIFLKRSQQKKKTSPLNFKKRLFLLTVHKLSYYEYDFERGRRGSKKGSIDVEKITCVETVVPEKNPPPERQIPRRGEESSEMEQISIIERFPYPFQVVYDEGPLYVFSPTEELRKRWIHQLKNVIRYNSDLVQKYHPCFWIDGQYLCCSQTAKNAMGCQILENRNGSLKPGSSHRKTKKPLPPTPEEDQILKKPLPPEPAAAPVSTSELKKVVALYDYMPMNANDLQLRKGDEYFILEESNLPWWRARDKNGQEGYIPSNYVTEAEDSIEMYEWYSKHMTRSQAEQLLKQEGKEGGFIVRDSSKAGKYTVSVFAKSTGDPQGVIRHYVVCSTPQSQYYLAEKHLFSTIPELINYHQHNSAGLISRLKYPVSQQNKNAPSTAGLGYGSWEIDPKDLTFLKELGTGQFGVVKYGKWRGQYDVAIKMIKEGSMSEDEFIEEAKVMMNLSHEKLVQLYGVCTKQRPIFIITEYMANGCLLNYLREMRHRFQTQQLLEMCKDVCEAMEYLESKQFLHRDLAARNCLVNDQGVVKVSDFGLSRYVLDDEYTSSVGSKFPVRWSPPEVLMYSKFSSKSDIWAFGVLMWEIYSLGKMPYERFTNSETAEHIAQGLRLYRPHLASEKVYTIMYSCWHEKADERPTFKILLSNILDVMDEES

Structure (SMILES)	IC50 [1] [nM]	IC50 (HeLa cells) [nM]
CNc1nccn2c([C@@H]3CC[C@H]4CCC(=O)N4C3)nc(-c3ccc(C(=O)Nc4cc(C(F)(F)F)ccn4)cc3)c12 [Example 60, 4-{8-(methylamino)-3-[(6R,8aS)-3-oxooctahydroindolizin-6-yl]imidazo[1,5-a]pyrazin-1-yl}-N-[4-(trifluoromethyl)pyridin-2-yl]benzamide]	12.7	44.1
CCNC(=O)Nc1nccn2c([C@@H]3CC[C@H]4CCC(=O)N4C3)nc(-c3ccc(C(=O)Nc4cc(C(F)(F)F)ccn4)cc3)c12 [Example 61, 4-{8-[(ethylcarbamoyl)amino]-3-[(6R,8aS)-3-oxooctahydroindolizin-6-yl]imidazo[1,5-a]pyrazin-1-yl}-N-[4-(trifluoromethyl)pyridin-2-yl]benzamide]	17.7	19.2
C[C@H]1CC(=O)N2C[C@H](c3nc(-c4ccc(C(=O)Nc5cc(C(F)(F)F)ccn5)cc4)c4c(N)nccn34)CC[C@H]12 [Example 64, 4-{8-amino-3-[(1S,6R,8aR)-1-methyl-3-oxooctahydroindolizin-6-yl]imidazo[1,5-a]pyrazin-1-yl}-N-[4-(trifluoromethyl)pyridin-2-yl]benzamide]	0.77	114
Nc1nccn2c([C@H]3CC[C@@H]4C[C@@H](O)C(=O)N4C3)nc(-c3ccc(C(=O)Nc4cc(C(F)(F)F)ccn4)cc3)c12 [Example 67, 4-{8-amino-3-[(2R,6S,8aR)-2-hydroxy-3-oxooctahydroindolizin-6-yl]imidazo[1,5-a]pyrazin-1-yl}-N-[4-(trifluoromethyl)pyridin-2-yl]benzamide]	3.7	410
Nc1nccn2c([C@H]3CC[C@H]4C[C@@H](O)C(=O)N4C3)nc(-c3ccc(C(=O)Nc4cc(C(F)(F)F)ccn4)cc3)c12 [Example 73, 4-{8-amino-3-[(2R,6S,8aS)-2-hydroxy-3-oxooctahydroindolizin-6-yl]imidazo[1,5-a]pyrazin-1-yl}-N-[4-(trifluoromethyl)pyridin-2-yl]benzamide]	0.93	973
Nc1nccn2c([C@H]3CN4C(=O)OC[C@H]4CO3)nc(-c3ccc(C(=O)Nc4cc(C(F)(F)F)ccn4)cc3)c12 [Example 76, 4-(8-amino-3-((6R,8aR)-3-oxohexa hydrooxazolo[4,3-c][1,4]oxazin-6-yl)imidazo[1,5-a]pyrazin-1-yl)-N-(4-(trifluoromethyl)pyridin-2-yl)benzamide]	24.9	682

Compounds with a lower IC50 [1], results first:

IC50 [1] [nM]	IC50 (HeLa cells) [nM]	Structure (SMILES)
0.13	206	Nc1nccn2c([C@@H]3CC[C@H]4CN(CCO)CC(=O)N4C3)nc(-c3ccc(C(=O)Nc4cc(C(F)(F)F)ccn4)cc3)c12 [Example 66, 4-{8-amino-3-[(7R,9aS)-2-(2-hydroxyethyl)-4-oxooctahydro-2H-pyrido[1,2-a]pyrazin-7-yl]imidazo[1,5-a]pyrazin-1-yl}-N-[4-(trifluoromethyl)pyridin-2-yl]benzamide]
0.081	430	Nc1nccn2c([C@@H]3CC[C@H]4C[C@H](O)C(=O)N4C3)nc(-c3ccc(C(=O)Nc4cc(C(F)(F)F)ccn4)cc3)c12 [Example 68, 4-{8-amino-3-[(2S,6R,8aS)-2-hydroxy-3-oxooctahydroindolizin-6-yl]imidazo[1,5-a]pyrazin-1-yl}-N-[4-(trifluoromethyl)pyridin-2-yl]benzamide]
0.16	1440	CCOc1cc(C(=O)Nc2cc(C(F)(F)F)ccn2)ccc1-c1nc([C@@H]2CC[C@H]3CCC(=O)N3C2)n2ccnc(N)c12 [Example 69, 4-{8-amino-3-[(6R,8aS)-3-oxooctahydroindolizin-6-yl]imidazo[1,5-a]pyrazin-1-yl}-3-ethoxy-N-[4-(trifluoromethyl)pyridin-2-yl]benzamide]
0.48	732	Nc1nccn2c([C@@H]3CC[C@H]4CCC(=O)N4C3)nc(-c3ccc(C(=O)Nc4cc(C(F)(F)F)ccn4)cc3OC(F)F)c12 [Example 71, 4-{8-amino-3-[(6R,8aS)-3-oxooctahydroindolizin-6-yl]imidazo[1,5-a]pyrazin-1-yl}-3-(difluoromethoxy)-N-[4-(trifluoromethyl)pyridin-2-yl]benzamide]
